Source: patent US6274715A, “Tricyclic erythromycin derivatives” (priority 1997, dated 2001)
Values after ≈ are worked out from the molar mass of the structure shown. Like-named read-outs stand apart in the source and are kept apart here.

Experiments:
Format in all cases: cell-based
[1] = system: STAPHYLOCOCCUS AUREUS CMX 553; assay: In vitro antibacterial activity, MIC, BHI agar dilution
ESCHERICHIA COLI SS = assay: as above; details: E. coli SS, unit assumed
ESCHERICHIA COLI JUHL = details: E. coli JUHL; BHI agar; listed as Ex 39; unit assumed
ESCHERICHIA COLI DC-2 = assay: In vitro antibacterial activity, MIC, BHI agar dilution
ESCHERICHIA COLI H560 = assay: as above
[2] = system: ENTEROBACTER AEROGENES ATCC 13048; assay: as above
[3] = system: PSEUDOMONAS AERUGINOSA K799/61; assay: as above
[4] = system: STREPTOCOCCUS PYOGENES EES61; assay: as above; details: S. pyogenes EES61, unit assumed
[5] = system: STAPHYLOCOCCUS EPIDERMIDIS 3519; details: S. epidermidis 3519; BHI agar; unit assumed
[6] = system: STREPTOCOCCUS PYOGENES 930; assay: In vitro antibacterial activity, MIC, BHI agar dilution
[7] = system: STAPHYLOCOCCUS AUREUS A5177; assay: as above
STR[…] 508 = assay: as above
Procedure: (§1) Representative compounds of the present invention were assayed in vitro for antibacterial activity as follows: Twelve petri dishes containing successive aqueous dilutions of the test compound mixed with 10 mL of sterilized Brain Heart Infusion (BHI) agar (Difco 0418-01-5) were prepared. Each plate was inoculated with 1:100 (or 1:10 for slow-growing strains, such as Micrococcus and Streptococcus) dilutions of up to 32 different microorganisms, using a Steers replicator block. The inoculated plates were incubated at 35-37° C. for 20 to 24 hours. In addition, a control plate, using BHI agar containing no test compound, was prepared and incubated at the beginning and end of each test.
(§2) An additional plate containing a compound having known susceptibility patterns for the organisms being tested and belonging to the same antibiotic class as the test compound was also prepared and incubated as a further control, as well as to provide test-to-test comparability. Erythromycin A was used for this purpose.
(§3) After incubation, each plate was visually inspected. The minimum inhibitory concentration (MIC) was defmed as the lowest concentration of drug yielding no growth, a slight haze, or sparsely isolated colonies on the inoculum spot as compared to the growth control.

EN[…] ATCC 8043 = assay: as above
Procedure: as §1, §2, §3

M[…] ATCC 9341 = assay: as above
Procedure: as §1, §2, §3

M[…] ATCC 4698 = assay: as above; details: M. luteus ATCC 4698, unit assumed
Procedure: as §1, §2, §3

[8] = system: STAPHYLOCOCCUS AUREUS ATCC 6538P; assay: as above; details: S. aureus ATCC 6538P, 35-37° C., 20 to 24 hours
[9] = system: STAPHYLOCOCCUS AUREUS NCTC10649M; assay: as above; details: S. aureus NCTC10649M
[10] = system: STREPTOCOCCUS PYOGENES PIU 2548; assay: as above; details: S. pyogenes PIU 2548, unit assumed
[11] = system: PSEUDOMONAS AERUGINOSA K799/WT; assay: as above; details: P. aeruginosa K799/WT
[12] = system: PSEUDOMONAS AERUGINOSA BMH10; assay: as above
CANDIDA ALBICANS CCH 442 = assay: as above
[13] = system: STAPHYLOCOCCUS AUREUS 1775; assay: as above; details: S. aureus 1775, unit assumed
[14] = system: KLEBSIELLA PNEUMONIAE ATCC 8045; assay: as above
[15] = system: PROVIDENCIA STUARTII CMX 640; details: P. stuartii CMX 640; BHI agar; unit assumed
PSEUDOMONAS CEPACIA 296I = assay: In vitro antibacterial activity, MIC, BHI agar dilution; details: P. cepacia 296I
[16] = system: PSEUDOMONAS AERUGINOSA DPHD-5263; assay: as above; details: P. aeruginosa DPHD-5263, unit assumed
[17] = system: PSEUDOMONAS AERUGINOSA 5007; assay: as above
[18] = system: STREPTOCOCCUS BOVIS A-5169; assay: as above
[19] = system: PSEUDOMONAS AERUGINOSA DPHD-2862; assay: as above; details: P. aeruginosa DPHD-2862, unit assumed
ESCHERICHIA COLI KNK 437 = details: E. coli KNK 437, BHI agar, unit assumed
[20] = system: STAPHYLOCOCCUS AUREUS A-5278; assay: In vitro antibacterial activity, MIC, BHI agar dilution; details: S. aureus A-5278, unit assumed
[21] = system: STAPHYLOCOCCUS AUREUS CMX 642A; assay: as above; details: S. aureus CMX 642A, unit assumed
[22] = system: MYCOBACTERIUM SMEGMATIS ATCC 114; assay: as above; details: M. smegmatis ATCC 114, unit assumed
[23] = S. aureus CMX 553, unit assumed
[24] = P. aeruginosa K799/61, unit assumed
[25] = S. agalactiae CMX 508, unit assumed

CCC1OC(=O)C(C)C(=O)C(C)C(OC2OC(C)CC(N(C)C)C2O)C(C)(OC)CC(C)C2=NCC(CCc3ccccc3)N3C(=O)OC1(C)C3C2C (stereo not shown) [Example 39]
MIC [1, 23]: 0.39 µg/mL (≈ 0.526 µM)
MIC (ESCHERICHIA COLI SS): 0.39 µg/mL (≈ 0.526 µM)
MIC (ESCHERICHIA COLI JUHL): 100 µg/mL (≈ 135 µM)
MIC (ESCHERICHIA COLI DC-2; E. coli DC-2, unit assumed): 100 µg/mL (≈ 135 µM)
MIC (ESCHERICHIA COLI H560; E. coli H560, listed as Ex 39, unit assumed): 25 µg/mL (≈ 33.7 µM)
MIC ([2]; E. aerogenes ATCC 13048, listed as Ex 39, unit assumed): > 100 µg/mL
MIC ([3]; P. aeruginosa K799/61, listed as Ex 39, unit assumed): 1.56 µg/mL (≈ 2.1 µM)
MIC [4]: 0.01 µg/mL (≈ 0.0135 µM)
MIC [5]: 0.78 µg/mL (≈ 1.05 µM)
MIC ([6]; S. pyogenes 930, listed as Ex 39, unit assumed): 100 µg/mL (≈ 135 µM)
MIC ([7]; S. aureus A5177, unit assumed): 0.39 µg/mL (≈ 0.526 µM)
MIC (STR[…] 508; S. agalactiae CMX 508, listed as Ex 39, unit assumed): 0.05 µg/mL (≈ 0.0674 µM)
MIC (EN[…] ATCC 8043; E. faecium ATCC 8043, listed as Ex 39, unit assumed): 0.1 µg/mL (≈ 0.135 µM)
MIC (M[…] ATCC 9341; M. luteus ATCC 9341, listed as Ex 39, unit assumed): 0.1 µg/mL (≈ 0.135 µM)
MIC (M[…] ATCC 4698): 0.2 µg/mL (≈ 0.27 µM)
MIC ([8]; unit assumed): 0.78 µg/mL (≈ 1.05 µM)
MIC ([9]; listed as Ex 39, unit assumed): 0.39 µg/mL (≈ 0.526 µM)
MIC [10]: 0.2 µg/mL (≈ 0.27 µM)
MIC ([11]; listed as Ex 39, unit assumed): 100 µg/mL (≈ 135 µM)
MIC ([12]; P. aeruginosa BMH10, listed as Ex 39, unit assumed): 50 µg/mL (≈ 67.4 µM)

CC[C@H]1OC(=O)[C@H](C)C(=O)[C@H](C)[C@@H](O[C@@H]2O[C@H](C)C[C@H](N(C)C)[C@H]2O)[C@](C)(OC)C[C@@H](C)C2=NC[C@H](COCc3ccc(OC)cc3)N3C(=O)O[C@@]1(C)[C@H]3[C@H]2C [Example 62]
MIC (CANDIDA ALBICANS CCH 442; C. albicans CCH 442, unit assumed): > 100 µg/mL
MIC [1, 23]: 0.2 µg/mL (≈ 0.254 µM)
MIC [13]: > 100 µg/mL
MIC ([14]; K. pneumoniae ATCC 8045, unit assumed): 25 µg/mL (≈ 31.7 µM)
MIC (ESCHERICHIA COLI SS): 0.2 µg/mL (≈ 0.254 µM)
MIC (ESCHERICHIA COLI DC-2; E. coli DC-2, unit assumed): 50 µg/mL (≈ 63.5 µM)
MIC (ESCHERICHIA COLI H560; E. coli H560, unit assumed): 100 µg/mL (≈ 127 µM)
MIC ([2]; E. aerogenes ATCC 13048, unit assumed): 25 µg/mL (≈ 31.7 µM)
MIC [15]: > 100 µg/mL
MIC [3, 24]: 0.2 µg/mL (≈ 0.254 µM)
MIC [4]: 0.1 µg/mL (≈ 0.127 µM)
MIC (PSEUDOMONAS CEPACIA 296I; unit assumed): 12.5 µg/mL (≈ 15.9 µM)
MIC [16]: 50 µg/mL (≈ 63.5 µM)
MIC ([17]; P. aeruginosa 5007, unit assumed): 100 µg/mL (≈ 127 µM)
MIC [5]: 0.2 µg/mL (≈ 0.254 µM)
MIC ([6]; S. pyogenes 930, unit assumed): > 100 µg/mL
MIC ([7]; S. aureus A5177, unit assumed): 0.2 µg/mL (≈ 0.254 µM)
MIC (STR[…] 508; [25]): 0.1 µg/mL (≈ 0.127 µM)
MIC (EN[…] ATCC 8043; E. faecium ATCC 8043, unit assumed): 0.1 µg/mL (≈ 0.127 µM)
MIC (M[…] ATCC 9341; M. luteus ATCC 9341, unit assumed): 0.01 µg/mL (≈ 0.0127 µM)
MIC (M[…] ATCC 4698): 0.02 µg/mL (≈ 0.0254 µM)
MIC ([8]; unit assumed): 0.2 µg/mL (≈ 0.254 µM)
MIC ([18]; S. bovis A-5169, unit assumed): 0.1 µg/mL (≈ 0.127 µM)
MIC ([9]; unit assumed): 0.2 µg/mL (≈ 0.254 µM)
MIC [19]: 100 µg/mL (≈ 127 µM)
MIC [10]: 0.2 µg/mL (≈ 0.254 µM)
MIC (ESCHERICHIA COLI KNK 437): 100 µg/mL (≈ 127 µM)
MIC [20]: > 100 µg/mL
MIC [21]: 0.2 µg/mL (≈ 0.254 µM)
MIC [22]: 0.1 µg/mL (≈ 0.127 µM)
MIC ([11]; unit assumed): 25 µg/mL (≈ 31.7 µM)
MIC ([12]; P. aeruginosa BMH10, unit assumed): 100 µg/mL (≈ 127 µM)

CC[C@H]1OC(=O)[C@H](C)C(=O)[C@H](C)[C@@H](O[C@@H]2O[C@H](C)C[C@H](N(C)C)[C@H]2O)[C@](C)(OC)C[C@@H](C)C2=NC3CN(CCCc4ccccc4)CC3N3C(=O)O[C@@]1(C)[C@H]3[C@H]2C (stereo partly shown) [Example 112]
MIC (CANDIDA ALBICANS CCH 442; C. albicans CCH 442, listed as Ex 112, unit assumed): 100 µg/mL (≈ 125 µM)
MIC ([1]; S. aureus CMX 553, listed as Ex 112, unit assumed): 0.78 µg/mL (≈ 0.979 µM)
MIC ([14]; K. pneumoniae ATCC 8045, listed as Ex 112, unit assumed): 100 µg/mL (≈ 125 µM)
MIC (ESCHERICHIA COLI DC-2; E. coli DC-2, listed as Ex 112, unit assumed): > 100 µg/mL
MIC (ESCHERICHIA COLI H560; E. coli H560, unit assumed): 50 µg/mL (≈ 62.7 µM)
MIC ([2]; E. aerogenes ATCC 13048, listed as Ex 112, unit assumed): 100 µg/mL (≈ 125 µM)
MIC [3, 24]: 0.78 µg/mL (≈ 0.979 µM)
MIC (PSEUDOMONAS CEPACIA 296I; listed as Ex 112, unit assumed): 100 µg/mL (≈ 125 µM)
MIC ([17]; P. aeruginosa 5007, listed as Ex 112, unit assumed): > 100 µg/mL
MIC [5]: 0.78 µg/mL (≈ 0.979 µM)
MIC ([6]; S. pyogenes 930, listed as Ex 112, unit assumed): > 100 µg/mL
MIC ([7]; S. aureus A5177, listed as Ex 112, unit assumed): 0.39 µg/mL (≈ 0.489 µM)
MIC (STR[…] 508; [25]): 0.02 µg/mL (≈ 0.0251 µM)
MIC (M[…] ATCC 9341; M. luteus ATCC 9341, listed as Ex 112, unit assumed): 0.1 µg/mL (≈ 0.125 µM)
MIC (M[…] ATCC 4698): 0.2 µg/mL (≈ 0.251 µM)
MIC ([8]; listed as Ex 112, unit assumed): 0.39 µg/mL (≈ 0.489 µM)
MIC ([18]; S. bovis A-5169, listed as Ex 112, unit assumed): ≤ 0.005 µg/mL
MIC ([9]; listed as Ex 112, unit assumed): 0.78 µg/mL (≈ 0.979 µM)
MIC [10]: 0.2 µg/mL (≈ 0.251 µM)
MIC (ESCHERICHIA COLI KNK 437; listed as Ex 112): 100 µg/mL (≈ 125 µM)
MIC [21]: 0.78 µg/mL (≈ 0.979 µM)
MIC [22]: 0.39 µg/mL (≈ 0.489 µM)
MIC ([11]; listed as Ex 112, unit assumed): > 100 µg/mL
MIC ([12]; P. aeruginosa BMH10, listed as Ex 112, unit assumed): 100 µg/mL (≈ 125 µM)
